Reference: ChEMBL document CHEMBL4699490, “Production of Highly Active Antiparasitic Compounds from the Controlled Halogenation of the Arrabidaea brachypoda Crude Plant Extract” (J Nat Prod, 2020)
pIC50: −log10 of the molar value.

Legend:
Leishmania amazonensis = assay: Antiparasitic activity against intracellular Leishmania amazonensis amastigotes infected in mouse peritoneal macrophage measured after 72 hrs; assay type: functional, organism-based
[1] = Cytotoxicity against Balb/c mouse peritoneal macrophage assessed as cell viability measured after 72 hrs by alamar blue assay; assay type: tissue-based; details: peritoneal macrophages
[2] = Selectivity index, ratio of CC50 for mouse peritoneal macrophages to IC50 for Leishmania amazonensis amastigotes infected in BALB/c mouse peritoneal macrophages; assay type: toxicity; details: read-out: Ratio CC50/IC50
Trypanosoma cruzi = assay: Antiparasitic activity against intracellular Trypanosoma cruzi amastigotes infected in mouse peritoneal macrophage measured after 72 hrs; assay type: functional, organism-based
[3] = Selectivity index, ratio of CC50 for mouse peritoneal macrophages to IC50 for Trypanosoma cruzi amastigotes infected in BALB/c mouse peritoneal macrophages; assay type: toxicity; details: read-out: Ratio CC50/IC50

Structure (SMILES): COc1cc(O)cc2c1[C@@H](/C=C/c1ccccc1)[C@@H]1[C@@H](c3ccccc3)Oc3cc(O)cc(OC)c3[C@@H]1O2
- pIC50 (Leishmania amazonensis): 5.20
- CC50 at 72 h [1]: > 20 µM
- selectivity ratio [2]: 3.2

Structure (SMILES): COc1ccc(/C=C/[C@@H]2c3c(OC)c(Br)c(O)c(Br)c3O[C@H]3c4c(OC)cc(O)c(Br)c4O[C@H](c4ccccc4)[C@@H]23)cc1
- pIC50 (Leishmania amazonensis): 5.35
- CC50 at 72 h [1]: > 100 µM
- selectivity ratio [2]: > 22
- pIC50 (Trypanosoma cruzi): 5.42
- selectivity ratio [3]: > 26

Structure (SMILES): COc1ccc(/C=C/[C@@H]2c3c(OC)cc(O)c(Cl)c3O[C@H]3c4c(OC)cc(O)c(Cl)c4O[C@H](c4ccccc4)[C@@H]23)cc1
- pIC50 (Leishmania amazonensis): 5.47
- CC50 at 72 h [1]: > 100 µM
- selectivity ratio [2]: > 29
- pIC50 (Trypanosoma cruzi): 5.66
- selectivity ratio [3]: > 45

Structure (SMILES): COc1cc(O)c(I)c2c1[C@@H](/C=C/c1ccccc1)[C@@H]1[C@@H](c3ccccc3)Oc3cc(O)cc(OC)c3[C@@H]1O2
- pIC50 (Leishmania amazonensis): < 5.00
- CC50 at 72 h [1]: > 100 µM
- pIC50 (Trypanosoma cruzi): 5.72
- selectivity ratio [3]: > 53

Structure (SMILES): COc1ccc(/C=C/[C@@H]2c3c(OC)cc(O)c(I)c3O[C@H]3c4c(OC)cc(O)c(I)c4O[C@H](c4ccccc4)[C@@H]23)cc1
- pIC50 (Leishmania amazonensis): 5.33
- CC50 at 72 h [1]: > 100 µM
- selectivity ratio [2]: > 21
- pIC50 (Trypanosoma cruzi): 5.60
- selectivity ratio [3]: > 40

Structure (SMILES): COc1ccc(/C=C/[C@@H]2c3c(OC)cc(O)c(Br)c3O[C@H]3c4c(OC)cc(O)cc4O[C@H](c4ccccc4)[C@@H]23)cc1
- pIC50 (Leishmania amazonensis): 5.48
- CC50 at 72 h [1]: > 100 µM
- selectivity ratio [2]: > 30
- pIC50 (Trypanosoma cruzi): 5.44
- selectivity ratio [3]: > 28

Structure (SMILES): COc1ccc(/C=C/[C@@H]2c3c(OC)cc(O)c(Cl)c3O[C@H]3c4c(OC)cc(O)cc4O[C@H](c4ccccc4)[C@@H]23)cc1
- pIC50 (Leishmania amazonensis): < 5.00
- CC50 at 72 h [1]: > 100 µM
- pIC50 (Trypanosoma cruzi): 5.85
- selectivity ratio [3]: > 71

Structure (SMILES): COc1cc(O)c(I)c2c1[C@@H](/C=C/c1ccccc1)[C@@H]1[C@@H](c3ccccc3)Oc3c(I)c(O)cc(OC)c3[C@@H]1O2
- pIC50 (Leishmania amazonensis): 5.41
- CC50 at 72 h [1]: > 100 µM
- selectivity ratio [2]: > 26
- pIC50 (Trypanosoma cruzi): 5.19
- selectivity ratio [3]: > 15

Structure (SMILES): COc1cc(O)cc2c1[C@@H](/C=C/c1ccc(O)cc1)[C@@H]1[C@@H](c3ccccc3)Oc3cc(O)cc(OC)c3[C@@H]1O2
- pIC50 (Leishmania amazonensis): < 4.70
- CC50 at 72 h [1]: > 20 µM

Structure (SMILES): COc1ccc(/C=C/[C@@H]2c3c(OC)cc(O)cc3O[C@H]3c4c(OC)cc(O)cc4O[C@H](c4ccccc4)[C@@H]23)cc1
- pIC50 (Leishmania amazonensis): 5.66
- CC50 at 72 h [1]: > 20 µM
- selectivity ratio [2]: 9.1

Structure (SMILES): COc1cc(O)c(Br)c2c1[C@@H]1Oc3c(Br)c(O)c(Br)c(OC)c3[C@@H](/C=C/c3ccc(O)cc3)[C@@H]1[C@@H](c1ccccc1)O2
- pIC50 (Leishmania amazonensis): 5.19
- CC50 at 72 h [1]: > 100 µM
- selectivity ratio [2]: > 15
- pIC50 (Trypanosoma cruzi): < 5.00

Structure (SMILES): COc1cc(O)c(Br)c2c1[C@@H](/C=C/c1ccccc1)[C@@H]1[C@@H](c3ccccc3)Oc3c(Br)c(O)cc(OC)c3[C@@H]1O2
- pIC50 (Leishmania amazonensis): 5.77
- CC50 at 72 h [1]: > 100 µM
- selectivity ratio [2]: > 59
- pIC50 (Trypanosoma cruzi): 5.80
- selectivity ratio [3]: > 63

Structure (SMILES): C[C@@H]1[C@H](O)[C@@H](C)/C=C/C=C/C=C/C=C/C=C/C=C/C=C/[C@H](O[C@@H]2O[C@H](C)[C@@H](O)[C@H](N)[C@@H]2O)C[C@@H]2O[C@](O)(C[C@@H](O)C[C@@H](O)[C@H](O)CC[C@@H](O)C[C@@H](O)CC(=O)O[C@H]1C)C[C@H](O)[C@H]2C(=O)O [AMPHOTERICIN B]
- pIC50 (Leishmania amazonensis): 6.70
- CC50 at 72 h [1]: > 50 µM
- selectivity ratio [2]: > 217

Structure (SMILES): COc1cc(O)c(I)c2c1[C@@H](/C=C/c1ccc(O)cc1)[C@@H]1[C@@H](c3ccccc3)Oc3c(I)c(O)cc(OC)c3[C@@H]1O2
- pIC50 (Leishmania amazonensis): 5.11
- CC50 at 72 h [1]: > 100 µM
- selectivity ratio [2]: > 13
- pIC50 (Trypanosoma cruzi): 5.74
- selectivity ratio [3]: > 56

Structure (SMILES): COc1ccc(/C=C/[C@@H]2c3c(OC)cc(O)c(Br)c3O[C@H]3c4c(OC)cc(O)c(Br)c4O[C@H](c4ccccc4)[C@@H]23)cc1
- pIC50 (Leishmania amazonensis): 5.44
- CC50 at 72 h [1]: > 100 µM
- selectivity ratio [2]: > 28
- pIC50 (Trypanosoma cruzi): 5.33
- selectivity ratio [3]: > 21

Structure (SMILES): COc1ccc(/C=C/[C@@H]2c3c(OC)cc(O)cc3O[C@H]3c4c(OC)cc(O)c(I)c4O[C@H](c4ccccc4)[C@@H]23)cc1
- pIC50 (Leishmania amazonensis): 5.27
- CC50 at 72 h [1]: > 100 µM
- selectivity ratio [2]: > 19
- pIC50 (Trypanosoma cruzi): 5.80
- selectivity ratio [3]: > 63

Structure (SMILES): COc1cc(O)c(Br)c2c1[C@@H](/C=C/c1ccc(O)cc1)[C@@H]1[C@@H](c3ccccc3)Oc3c(Br)c(O)cc(OC)c3[C@@H]1O2
- pIC50 (Leishmania amazonensis): 5.60
- CC50 at 72 h [1]: > 100 µM
- selectivity ratio [2]: > 40
- pIC50 (Trypanosoma cruzi): 5.08
- selectivity ratio [3]: > 12

Structure (SMILES): COc1cc(O)c(Cl)c2c1[C@@H](/C=C/c1ccccc1)[C@@H]1[C@@H](c3ccccc3)Oc3cc(O)cc(OC)c3[C@@H]1O2
- pIC50 (Leishmania amazonensis): 5.92
- CC50 at 72 h [1]: > 100 µM
- selectivity ratio [2]: > 83
- pIC50 (Trypanosoma cruzi): 5.85
- selectivity ratio [3]: > 71

Structure (SMILES): COc1cc(O)c(Br)c2c1[C@@H]1Oc3c(Br)c(O)c(Br)c(OC)c3[C@@H](/C=C/c3ccccc3)[C@@H]1[C@@H](c1ccccc1)O2
- pIC50 (Leishmania amazonensis): 6.00
- CC50 at 72 h [1]: > 100 µM
- selectivity ratio [2]: > 100
- pIC50 (Trypanosoma cruzi): 5.54
- selectivity ratio [3]: > 34

Structure (SMILES): O=C(Cn1ccnc1[N+](=O)[O-])NCc1ccccc1 [BENZNIDAZOLE]
- CC50 at 72 h [1]: > 100 µM
- pIC50 (Trypanosoma cruzi): 5.85
- selectivity ratio [3]: > 35
